Patent US20250368697A1, “MODIFIED PEPTIDE DERIVED FROM URECHIS UNICINCTUS IN PREPARATION OF DRUG FOR TREATING ALCOHOLIC LIVER DISEASE” (Beijing Institute of Petrochemical Technology, priority 2024, published 2025)
Like-named read-outs stand apart in the source and are kept apart here. Where no end group is shown, it is not given here.

Tests used:
[1] = tested on: HepG2 cells; type: cell-based; conditions: human, 24 h
Procedure: When a cell density of the cells reached 90%, the cells are digested and passaged to form a single-cell suspension. The cell concentration is determined using a hemocytometer, and the suspension is adjusted to 8×10^4 cells per well. A volume of 180 μL of the cell suspension is added to each well of a 96-well plate. The 96-well plate is then incubated in a 37° C., 5% CO2 cell incubator for 24 hours. The cells are subjected to alcoholic damage for 24 hours using gradient concentrations of anhydrous ethanol at […] (final concentrations). A blank group received no addition. All solutions in the 96-well plate are aspirated, and 100 μL of a 10% CCK-8 solution is added to each well. After incubation for 1 hour, the absorbance is measured at 450 nanometers (nm) using a microplate reader. The cell viability is calculated using the following formula: […]
HepG2 cells are collected, digested, centrifuged, and resuspended. The HepG2cells are then seeded into a 96-well plate at a density of 8×10^4 cells per well, with 160 μL of cell suspension added to each well. After incubating the plate in a 37° C., 5% CO2 incubator for 24 hours, 20 μL of distilled water is added to a blank well as the blank group. Referring to Section 1.2.2.2 and the preparation of blank group cell sample, an anhydrous ethanol-induced damage model is established. The HepG2 cells are damaged with 500 mM anhydrous ethanol for 24 hours. The model group received 20 μL of distilled water, while the positive control wells received 20 μL of N-acetylcysteine (NAC) at a final concentration of 3 mM. The treatment wells receive 20 μL of the modified peptide derived from Urechis unicinctus of F2-1 at final concentrations of 200 μM, 300 μM, and 400 μM (dissolved in water). The 96-well plate is then incubated in a 37° C., 5% CO2 incubator for 24 hours after adding the modeling solution. […] The absorbance is measured at 450 nm using a microplate reader after 1 hour of incubation. The cell viability is calculated using the following formula: […]

[2] = tested on: Cytochrome P450 2E1 (CYP2E1); test: CYP2E1 content in alcoholic damaged HepG2 cells (ELISA); type: cell-based, human; conditions: 500 mM ethanol-damaged HepG2
Procedure: (§1) HepG2 cells are collected, digested, centrifuged, and resuspended. The HepG2 cells are then seeded into a 6-well plate at a density of 1×10^6 cells per well, with 1.6 mL of cell suspension added to each well. After incubating the plate in a 37° C., 5% CO2 incubator for 24 hours, 200 μL of distilled water is added to the blank wells as the blank group. Referring to Section 1.2.2.2 and the preparation of blank group cell sample, an anhydrous ethanol-induced damage model is established. The HepG2 cells are damaged with 500 mM anhydrous ethanol for 24 hours. The model group receives 200 μL of distilled water, while the positive control wells receive 200 μL of NAC at a final concentration of 3 mM. The treatment wells receive 200 μL of the modified peptide derived from Urechis unicinctus of F2-1 at final concentrations of 200 μM, 300 μM, and 400 μM (dissolved in water). After adding the modeling solution, the plate is incubated in a 37° C., 5% CO2 incubator for an additional 24 hours. The 6-well plate is then taken out and placed on ice. All liquids in the wells are discarded, and the cells are washed three times with pre-chilled phosphate buffer solution (PBS). High-efficiency radio immunoprecipitation assay (RIPA) lysis buffer is added, and the HepG2 cells are lysed on ice for 30 minutes. The lysates are then centrifuged at 12,000 rpm for 10 minutes at low temperature, and the white precipitate is discarded.
(§2) ELISA kits are purchased from Hangzhou Leyi Biotechnology Co., Ltd. An ELISA plate reader is used to measure indicators such as the interleukin-1β (IL-1β) ELISA kit, interleukin-6 (IL-6) ELISA kit, and Cytochrome P450 2E1 (CYP2E1) ELISA kit.

[3] = tested on: interleukin-6 (IL-6); test: IL-6 content in alcoholic damaged HepG2 cells (ELISA); type: cell-based, human; conditions: 3 mM (positive control); 500 mM ethanol-damaged HepG2
Procedure: as §1, with “All liquids in the wells are discarded, and the cells are washed three times with pre-chilled phosphate buffer solution (PBS). High-efficiency radio immunoprecipitation assay (RIPA) lysis buffer is added, and the HepG2 cells are lysed on ice for 30 minutes. The lysates are then centrifuged at 12,000 rpm for 10 minutes at low temperature, and the white precipitate is discarded.” left out
as §2

[4] = tested on: interleukin-1β (IL-1β); test: IL-1β content in alcoholic damaged HepG2 cells (ELISA); type: cell-based, human; conditions: 3 mM (positive control); 500 mM ethanol-damaged HepG2
Procedure: as §1, with “All liquids in the wells are discarded, and the cells are washed three times with pre-chilled phosphate buffer solution (PBS). High-efficiency radio immunoprecipitation assay (RIPA) lysis buffer is added, and the HepG2 cells are lysed on ice for 30 minutes. The lysates are then centrifuged at 12,000 rpm for 10 minutes at low temperature, and the white precipitate is discarded.” left out
as §2

[5] = tested on: HepG2 cells; test: Biochemical indicators (ALT, AST, TC, TG, HDL-C, LDL-C) in alcoholic damaged HepG2 cells; type: cell-based, human; conditions: 3 mM (positive control); 500 mM ethanol-damaged HepG2
Procedure: as §1
Reagent kits are purchased from Nanjing Jiancheng Bioengineering Institute. An enzyme-linked immunosorbent assay (ELISA) plate reader is used to measure biochemical indicators such as alanine aminotransferase (ALT), aspartate aminotransferase (AST), triglycerides (TG), total cholesterol (TC), high-density lipoprotein cholesterol (HDL-C), and low-density lipoprotein cholesterol (LDL-C).

Molecule | cell viability ([1]; 200 μM) [%] | cell viability ([1]; 300 μM) [%] | cell viability ([1]; 400 μM) [%] | CYP2E1 content in HepG2 cells ([2]; 200 μM (low dose), vs model group) | CYP2E1 content in HepG2 cells ([2]; 300 μM (medium dose), vs model group) | CYP2E1 content in HepG2 cells ([2]; 400 μM (high dose)) [U/mg prot] | IL-6 content in HepG2 cells [3] [pg/mL] | CYP2E1 content in HepG2 cells ([2]; 3 mM (positive control)) [U/mg prot] | IL-1β content in HepG2 cells [4] [pg/mL] | ALT level in HepG2 cells [5] [U/L] | AST level in HepG2 cells [5] [U/L] | HDL-C level in HepG2 cells [5] [mmol/L] | LDL-C level in HepG2 cells [5] [mmol/L] | TC level in HepG2 cells [5] [mmol/L] | TG level in HepG2 cells [5] [mmol/L]
IHVKF [F2-1, IHVKF] | 80.65±5.67 | 85.39±9.61 | 94.58±4.22 | do not significantly reduce | do not significantly reduce | 7.97±0.78 | – | – | – | – | – | – | – | – | –
CC(=O)N[C@@H](CS)C(=O)O [NAC, N-acetylcysteine] | – | – | – | – | – | – | 87.25 ± 5.30 | 7.80±0.96 | 123.36 ± 1.67 | 7.93±0.14 | 8.26±0.30 | 0.12 ± 0.02 | 0.01 ± 0.00 | 0.06 ± 0.02 | 0.49 ± 0.00
